Measured values taken from ChEMBL document CHEMBL1153245, “A profile of the in vitro anti-tumor activity of imidazolium-based ionic liquids” (2010).

Tests used:
Format in all cases: functional
[1] = system: SW-620; assay: Anticancer activity against human SW620 cells assessed cell growth at 10 uM after 48 hrs by sulforhodamine B assay relative to control
[2] = Anticancer activity against human Hs 578T cells after 48 hrs by sulforhodamine B assay
[3] = system: NCI-H522; assay: Anticancer activity against human NCI-H522 cells after 48 hrs by sulforhodamine B assay
[4] = system: OVCAR-5; assay: Anticancer activity against human OVCAR5 cells assessed cell growth at 10 uM after 48 hrs by sulforhodamine B assay relative to control
[5] = system: EKVX; assay: Anticancer activity against human EKVX cells after 48 hrs by sulforhodamine B assay
[6] = system: MCF7; assay: Anticancer activity against human MCF7 cells assessed cell growth at 10 uM after 48 hrs by sulforhodamine B assay relative to control
[7] = system: ACHN; assay: Anticancer activity against human ACHN cells after 48 hrs by sulforhodamine B assay
[8] = system: UACC-257; assay: Anticancer activity against human UACC257 cells after 48 hrs by sulforhodamine B assay
[9] = system: MDA-MB-231; assay: Anticancer activity against human MDA-MB-231 cells assessed cell growth at 10 uM after 48 hrs by sulforhodamine B assay relative to control
[10] = system: RXF 393; assay: Anticancer activity against human RXF393 cells after 48 hrs by sulforhodamine B assay
[11] = system: SN12C; assay: Anticancer activity against human SN12C cells assessed cell growth at 10 uM after 48 hrs by sulforhodamine B assay relative to control
[12] = system: A498; assay: Anticancer activity against human A498 cells after 48 hrs by sulforhodamine B assay
[13] = system: BT-549; assay: Anticancer activity against human BT549 cells after 48 hrs by sulforhodamine B assay
[14] = system: NCI-H23; assay: Anticancer activity against human NCI-H23 cells assessed cell growth at 10 uM after 48 hrs by sulforhodamine B assay relative to control
[15] = system: Malme-3M; assay: Anticancer activity against human MALME-3M cells assessed cell growth at 10 uM after 48 hrs by sulforhodamine B assay relative to control
[16] = system: HOP-92; assay: Anticancer activity against human HOP92 cells after 48 hrs by sulforhodamine B assay
[17] = system: LOX IMVI; assay: Anticancer activity against human LOXIMVI cells after 48 hrs by sulforhodamine B assay
[18] = system: UO-31; assay: Anticancer activity against human UO31 cells after 48 hrs by sulforhodamine B assay
[19] = system: NCI/ADR-RES; assay: Anticancer activity against human NCI/ADR-RES cells after 48 hrs by sulforhodamine B assay
[20] = system: K562; assay: Anticancer activity against human K562 cells after 48 hrs by sulforhodamine B assay
[21] = system: NCI-H322M; assay: Anticancer activity against human NCI-H322M cells after 48 hrs by sulforhodamine B assay
[22] = system: SK-MEL-28; assay: Anticancer activity against human SK-MEL-28 cells after 48 hrs by sulforhodamine B assay
[23] = system: SK-OV-3; assay: Anticancer activity against human SKOV3 cells after 48 hrs by sulforhodamine B assay
[24] = system: OVCAR-4; assay: Anticancer activity against human OVCAR4 cells after 48 hrs by sulforhodamine B assay
[25] = system: SF-539; assay: Anticancer activity against human SF539 cells assessed cell growth at 10 uM after 48 hrs by sulforhodamine B assay relative to control
[26] = system: HL-60(TB); assay: Anticancer activity against human HL-60(TB) cells after 48 hrs by sulforhodamine B assay
[27] = system: HOP-62; assay: Anticancer activity against human HOP62 cells after 48 hrs by sulforhodamine B assay
[28] = system: SNB-19; assay: Anticancer activity against human SNB19 cells after 48 hrs by sulforhodamine B assay
[29] = system: MDA-MB-435; assay: Anticancer activity against human MDA-MB-435 cells after 48 hrs by sulforhodamine B assay
[30] = system: MOLT-4; assay: Anticancer activity against human MOLT4 cells assessed cell growth at 10 uM after 48 hrs by sulforhodamine B assay relative to control
[31] = system: UACC-62; assay: Anticancer activity against human UACC62 cells assessed cell growth at 10 uM after 48 hrs by sulforhodamine B assay relative to control
[32] = Anticancer activity against human […] cells after 48 hrs by sulforhodamine B assay
[33] = system: HCT-15; assay: Anticancer activity against human HCT15 cells after 48 hrs by sulforhodamine B assay
[34] = system: DU-145; assay: Anticancer activity against human DU145 cells after 48 hrs by sulforhodamine B assay
[35] = system: 786-0; assay: Anticancer activity against human 786-0 cells after 48 hrs by sulforhodamine B assay
[36] = system: M14; assay: Anticancer activity against human M14 cells after 48 hrs by sulforhodamine B assay
[37] = system: SK-MEL-5; assay: Anticancer activity against human SK-MEL-5 cells assessed cell growth at 10 uM after 48 hrs by sulforhodamine B assay relative to control
[38] = system: RXF 393; assay: Anticancer activity against human RXF393 cells assessed cell growth at 10 uM after 48 hrs by sulforhodamine B assay relative to control
[39] = system: SK-MEL-5; assay: Anticancer activity against human SK-MEL-5 cells after 48 hrs by sulforhodamine B assay
[40] = system: NCI-H322M; assay: Anticancer activity against human NCI-H322M cells assessed cell growth at 10 uM after 48 hrs by sulforhodamine B assay relative to control
[41] = system: SNB-75; assay: Anticancer activity against human SNB75 cells assessed cell growth at 10 uM after 48 hrs by sulforhodamine B assay relative to control
[42] = read-out: LC50 (the source's name)

Compound: CCCCCCCCCCCCCCCCCC[n+]1ccn(C)c1.F[P-](F)(F)(F)(F)F
- Activity [1]: -48.51%
- GI50 [2]: 0.536 µM
- CC50 [2, 42]: 6.15 µM
- GI50 [3]: 1.16 µM
- LC50 [3]: 6.77 µM
- Activity [4]: -60.74%
- GI50 [5]: 1.12 µM
- CC50 [5, 42]: 7.64 µM
- Activity [6]: 1.35%
- GI50 [7]: 0.934 µM
- LC50 [7]: 4.62 µM
- GI50 [8]: 1.69 µM
- LC50 [8]: 9.66 µM
- Activity [9]: -32.88%
- GI50 [10]: 0.467 µM
- LC50 [10]: 5.98 µM
- Activity [11]: -24.52%
- GI50 [12]: 1.15 µM
- CC50 [12, 42]: 7.55 µM
- GI50 [13]: 1.29 µM
- CC50 [13, 42]: 6.91 µM
- Activity [14]: -49.37%
- Activity [15]: -46.96%
- GI50 [16]: 0.927 µM
- CC50 [16, 42]: 6.68 µM
- GI50 [17]: 0.385 µM
- CC50 [17, 42]: 3.84 µM
- GI50 [18]: 0.657 µM
- LC50 [18]: 5.35 µM
- GI50 [19]: 1.45 µM
- GI50 [20]: 0.935 µM
- GI50 [21]: 1.61 µM
- LC50 [21]: > 100 µM
- LC50 [22]: 5.16 µM
- GI50 [23]: 1.81 µM
- CC50 [23, 42]: 4.2 µM
- GI50 [24]: 1.03 µM
- CC50 [24, 42]: 6.33 µM
- Activity [25]: -80.04%
- GI50 [26]: 0.185 µM
- CC50 [26, 42]: > 100 µM
- GI50 [27]: 1.45 µM
- CC50 [27, 42]: 7.77 µM
- GI50 [28]: 1.45 µM
- CC50 [28, 42]: 7.89 µM
- GI50 [29]: 0.851 µM
- CC50 [29, 42]: 6.64 µM
- Activity [30]: 2.98%
- Activity [31]: -65.74%
- GI50 [32]: 0.017 µM
- CC50 [32, 42]: 0.811 µM
- GI50 [33]: 1.01 µM
- CC50 [33, 42]: 4.66 µM
- GI50 [34]: 1.02 µM
- CC50 [34, 42]: 4.68 µM
- GI50 [35]: 1.25 µM
- LC50 (50% lethal concentration) [35]: 8.58 µM
- GI50 [36]: 0.424 µM
- LC50 (50% lethal concentration) [36]: 6.25 µM
- Activity [37]: -85.04%
- Activity [38]: -52.84%
- GI50 [39]: 0.617 µM
- CC50 [39, 42]: 4.37 µM
- Activity [40]: 11.62%
- Activity [41]: -68.15%
